Reference: US20120053200A1, “BACE 2 INHIBITORS” (priority 2010, published 2012)

Molecular target: T1, BACE2 (Rattus norvegicus, UniProt Q6IE75)
T1 construct: endogenous cellular BACE2 in the Ins1e rat cell line; endogenous in cells; host or cells: INS-TMEM27 (INS1e-derived rat beta-cell line with doxycycline-inducible full-length hTMEM27)
T1 sequence (Q6IE75 63-514): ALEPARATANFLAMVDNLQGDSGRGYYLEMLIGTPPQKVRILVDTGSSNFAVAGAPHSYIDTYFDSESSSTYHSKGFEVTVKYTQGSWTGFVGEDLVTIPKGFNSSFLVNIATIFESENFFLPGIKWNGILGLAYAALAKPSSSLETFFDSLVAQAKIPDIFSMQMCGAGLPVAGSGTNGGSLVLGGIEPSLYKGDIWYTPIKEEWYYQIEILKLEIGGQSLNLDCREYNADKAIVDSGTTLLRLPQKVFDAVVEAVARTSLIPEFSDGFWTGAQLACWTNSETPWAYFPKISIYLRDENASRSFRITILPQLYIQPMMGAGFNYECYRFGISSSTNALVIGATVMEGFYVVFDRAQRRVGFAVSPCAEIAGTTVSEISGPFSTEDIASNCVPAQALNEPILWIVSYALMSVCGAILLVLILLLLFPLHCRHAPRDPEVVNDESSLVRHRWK
Assay: Assay for BACE inhibition by measuring cellular TMEM27 cleavage (INS-TMEM27 cells, ELISA of shed TMEM27)
Format: cell-based
Conditions: inhibition of human TMEM27 cleavage by endogenous cellular BACE2 in INS1e-derived INS-TMEM27 rat cell line; ELISA of shed TMEM27 in supernatant
Text: Assay for […] Inhibition by Measuring Cellular TMEM27 Cleavage
This assay uses the principle of inhibition of human TMEM27 cleavage by endogenous cellular BACE2 in the Ins1e rat cell line and shedding from the cell surface into the culture medium, followed by detection in an ELISA assay. Inhibition of BACE2 prevents the cleavage and shedding in a dose-dependent manner.
The stable cell line “INS-TMEM27” represents an INS1e-derived cell line with inducible expression (using the TetOn system) of full-length hTMEM27 in a doxycycline-dependent manner. The cells were cultured throughout the experiment in RPMI1640+Glutamax (Invitrogen) Penicillin/Streptomycin, 10% Fetal bovine serum, 100 mM pyruvate, […] beta-mercatptoethanol, 100 micrograms/ml G418 and 100 microgram/ml hygromycin and were grown in adherent culture at 37° C. in a standard CO2 cell culture incubator.
INS-TMEM27 cells were seeded in 96-well plates. After 2 days in culture, BACE2 inhibitor was added in a range of concentrations as required by the assay and after a further two hours, doxycycline was added to a final concentration of 500 ng/ml. The cells were incubated for a further 46 hours and the supernatant harvested for detection of shed TMEM27.
An ELISA assay (using a pair of mouse anti-human-TMEM27 antibodies, raised against the extracellular domain of TMEM27) was used for detection of TMEM27 in the culture medium. An IC50 for BACE2 inhibition was calculated using the ELISA readout for each inhibitor concentration with standard curve-fitting software.
The inhibitory activity, given as an IC50 value, of the compounds of Examples 1 to 32 and 34 to 74 were as follows.

| Structure (SMILES) | IC50 |
| --- | --- |
| Cc1csc(CN(C)C(=O)c2cccc(C(=O)N[C@@H](Cc3ccccc3)[C@H](O)CNCc3cccc(C(F)(F)F)c3)c2)n1 [Example 1, N-[(1S,2R)-1-Benzyl-2-hydroxy-3-(3-trifluoromethyl-benzylamino)-propyl]-N′-methyl-N′-(4-methyl-thiazol-2-ylmethyl)-isophthalamide] | 205 nM |
| Cc1csc(CN(C)C(=O)c2cccc(C(=O)N[C@@H](Cc3ccccc3)[C@H](O)CNCc3cccc(OC(F)(F)F)c3)c2)n1 [Example 2, N-[(1S,2R)-1-Benzyl-2-hydroxy-3-(3-trifluoromethoxy-benzylamino)-propyl]-N′-methyl-N′-(4-methyl-thiazol-2-ylmethyl)-isophthalamide] | 258 nM |
| COc1cccc(CNC[C@@H](O)[C@H](Cc2ccccc2)NC(=O)c2cccc(C(=O)N(C)Cc3nc(C)cs3)c2)c1 [Example 3, N-[(1S,2R)-1-Benzyl-2-hydroxy-3-(3-methoxy-benzylamino)-propyl]-N′-methyl-N′-(4-methyl-thiazol-2-ylmethyl)-isophthalamide] | 175 nM |
| O=C(N[C@@H](Cc1ccccc1)[C@H](O)CNCc1cccc(OC(F)(F)F)c1)c1cccc(C(=O)N2CCCC2c2ccncc2)c1 (stereo partly drawn) [Example 4, N-[(1S,2R)-1-Benzyl-2-hydroxy-3-(3-trifluoromethoxy-benzylamino)-propyl]-3-(2-pyridin-4-yl-pyrrolidine-1-carbonyl)-benzamide] | 471 nM |
| O=C(N[C@@H](Cc1ccccc1)[C@H](O)CNCc1cccc(C(F)(F)F)c1)c1cccc(C(=O)N2CCCC2c2ccncc2)c1 (stereo partly drawn) [Example 5, N-[(1S,2R)-1-Benzyl-2-hydroxy-3-(3-trifluoromethyl-benzylamino)-propyl]-3-(2-pyridin-4-yl-pyrrolidine-1-carbonyl)-benzamide] | 140 nM |
| O=C(NCc1ccccn1)c1cccc(C(=O)N[C@@H](Cc2ccccc2)[C@H](O)CNCc2cccc(OC(F)(F)F)c2)c1 [Example 6, N-[(1S,2R)-1-Benzyl-2-hydroxy-3-(3-trifluoromethoxy-benzylamino)-propyl]-N′-pyridin-2-ylmethyl-isophthalamide] | 520 nM |
| O=C(NCc1ccccn1)c1cccc(C(=O)N[C@@H](Cc2ccccc2)[C@H](O)CNCc2cccc(C(F)(F)F)c2)c1 [Example 7, N-[(1S,2R)-1-Benzyl-2-hydroxy-3-(3-trifluoromethyl-benzylamino)-propyl]-N′-pyridin-2-ylmethyl-isophthalamide] | 478 nM |
| CC1(C)[C@@H]2CC[C@@]1(C)CN(C(=O)c1cccc(C(=O)N[C@@H](Cc3ccccc3)[C@H](O)CNCc3cccc(OC(F)(F)F)c3)c1)C2 [Example 8, N-[(1S,2R)-1-Benzyl-2-hydroxy-3-(3-trifluoromethoxy-benzylamino)-propyl]-3-((1R,5S)-1,8,8-trimethyl-3-aza-bicyclo[3.2.1]octane-3-carbonyl)-benzamide] | 822 nM |
| O=C(N[C@@H](Cc1ccccc1)[C@H](O)CNCc1cccc(OC(F)(F)F)c1)c1cccc(C(=O)N2CCC(c3ccccn3)C2)c1 (stereo partly drawn) [Example 9, N-[(1S,2R)-1-Benzyl-2-hydroxy-3-(3-trifluoromethoxy-benzylamino)-propyl]-3-(3-pyridin-2-yl-pyrrolidine-1-carbonyl)-benzamide] | 263 nM |

The next lines start with the values.

| IC50 | Structure (SMILES) |
| --- | --- |
| 14 nM | Cc1cc(C(=O)N[C@@H](Cc2ccccc2)[C@H](O)CNCc2cccc(OC(F)(F)F)c2)cc(C(=O)N2CCC[C@@H]2c2nc(C)cs2)c1 [Example 10, N-[(1S,2R)-1-Benzyl-2-hydroxy-3-(3-trifluoromethoxy-benzylamino)-propyl]-3-methyl-5-[(R)-2-(4-methyl-thiazol-2-yl)-pyrrolidine-1-carbonyl]-benzamide] |
| 9 nM | Cc1csc([C@H]2CCCN2C(=O)c2cccc(C(=O)N[C@@H](Cc3ccccc3)[C@H](O)CNCc3cccc(C(F)(F)F)c3)c2)n1 [Example 11, N-[(1S,2R)-1-Benzyl-2-hydroxy-3-(3-trifluoromethyl-benzylamino)-propyl]-3-[(R)-2-(4-methyl-thiazol-2-yl)-pyrrolidine-1-carbonyl]-benzamide] |
| 75 nM | O=C(N[C@@H](Cc1ccccc1)[C@H](O)CNCc1cccc(C(F)(F)F)c1)c1cccc(C(=O)N2CCCC2c2ccccc2)c1 (stereo partly drawn) [Example 12, N-[(1S,2R)-1-Benzyl-2-hydroxy-3-(3-trifluoromethyl-benzylamino)-propyl]-3-(2-phenyl-pyrrolidine-1-carbonyl)-benzamide] |
| 68 nM | O=C(N[C@@H](Cc1ccccc1)[C@H](O)CNCc1cccc(C(F)(F)F)c1)c1cccc(C(=O)N2CCCC2c2cccnc2)c1 (stereo partly drawn) [Example 13, N-[(1S,2R)-1-Benzyl-2-hydroxy-3-(3-trifluoromethyl-benzylamino)-propyl]-3-(2-pyridin-3-yl-pyrrolidine-1-carbonyl)-benzamide] |
| 63 nM | Cn1ccc(C2CCCN2C(=O)c2cccc(C(=O)N[C@@H](Cc3ccccc3)[C@H](O)CNCc3cccc(C(F)(F)F)c3)c2)n1 (stereo partly drawn) [Example 14, N-[(1S,2R)-1-Benzyl-2-hydroxy-3-(3-trifluoromethyl-benzylamino)-propyl]-3-[2-(1-methyl-1H-pyrazol-3-yl)-pyrrolidine-1-carbonyl]-benzamide] |
| 332 nM | Cn1nccc1C1CCCN1C(=O)c1cccc(C(=O)N[C@@H](Cc2ccccc2)[C@H](O)CNCc2cccc(C(F)(F)F)c2)c1 (stereo partly drawn) [Example 15, N-[(1S,2R)-1-Benzyl-2-hydroxy-3-(3-trifluoromethyl-benzylamino)-propyl]-3-[2-(2-methyl-2H-pyrazol-3-yl)-pyrrolidine-1-carbonyl]-benzamide] |
| 55 nM | Cc1cc(C2CCCN2C(=O)c2cccc(C(=O)N[C@@H](Cc3ccccc3)[C@H](O)CNCc3cccc(C(F)(F)F)c3)c2)on1 (stereo partly drawn) [Example 16, N-[(1S,2R)-1-Benzyl-2-hydroxy-3-(3-trifluoromethyl-benzylamino)-propyl]-3-[2-(3-methyl-isoxazol-5-yl)-pyrrolidine-1-carbonyl]-benzamide] |
| 213 nM | Cc1noc(C2CCCN2C(=O)c2cccc(C(=O)N[C@@H](Cc3ccccc3)[C@H](O)CNCc3cccc(C(F)(F)F)c3)c2)n1 (stereo partly drawn) [Example 17, N-[(1S,2R)-1-Benzyl-2-hydroxy-3-(3-trifluoromethyl-benzylamino)-propyl]-3-[2-(3-methyl-[1,2,4]oxadiazol-5-yl)-pyrrolidine-1-carbonyl]-benzamide] |
| 47 nM | CN(Cc1ccccn1)C(=O)c1cccc(C(=O)N[C@@H](Cc2ccccc2)[C@H](O)CNCc2cccc(C(F)(F)F)c2)c1 [Example 18, N-[(1S,2R)-1-Benzyl-2-hydroxy-3-(3-trifluoromethyl-benzylamino)-propyl]-N′-methyl-N′-pyridin-2-ylmethyl-isophthalamide] |
| 8 nM | O=C(N[C@@H](Cc1ccccc1)[C@H](O)CNCc1cccc(C(F)(F)F)c1)c1cccc(C(=O)N2CCCC2c2cccs2)c1 (stereo partly drawn) [Example 19, N-[(1S,2R)-1-Benzyl-2-hydroxy-3-(3-trifluoromethyl-benzylamino)-propyl]-3-(2-thiophen-2-yl-pyrrolidine-1-carbonyl)-benzamide] |
| 143 nM | COc1cccc(CNC[C@@H](O)[C@H](Cc2ccccc2)NC(=O)c2cccc(C(=O)N3CCC[C@@H]3c3nc(C)cs3)c2)c1 [Example 20, N-[(1S,2R)-1-Benzyl-2-hydroxy-3-(3-methoxy-benzylamino)-propyl]-3-[(R)-2-(4-methyl-thiazol-2-yl)-pyrrolidine-1-carbonyl]-benzamide] |
| 37 nM | Cc1csc([C@H]2CCCN2C(=O)c2cccc(C(=O)N[C@@H](Cc3ccccc3)[C@H](O)CNCc3cccc(OC(F)(F)F)c3)c2)n1 [Example 21, N-[(1S,2R)-1-Benzyl-2-hydroxy-3-(3-trifluoromethoxy-benzylamino)-propyl]-3-[(R)-2-(4-methyl-thiazol-2-yl)-pyrrolidine-1-carbonyl]-benzamide] |
| 31.2 nM | COc1cccc(CNC[C@@H](O)[C@H](Cc2ccccc2)NC(=O)c2cccc(C(=O)N3CCCC3c3ccccc3)c2)c1 (stereo partly drawn) [Example 22, N-[(1S,2R)-1-Benzyl-2-hydroxy-3-(3-methoxy-benzylamino)-propyl]-3-(2-phenyl-pyrrolidine-1-carbonyl)-benzamide] |
